Measurements published in PubChem BioAssay AID330 (DTP/NCI, 2004).
Values joined by “and” are separate entries in the source; they are usually repeats but may differ in a detail not shown here. Equal values may be shown once. Toxic doses and inconclusive results are not listed.

Tested on: P388 leukemia ip, CD2F1 mice, survival T/C
Experiment: NCI In Vivo Anticancer Drug Screen. Data for tumor model P388 Leukemia (intraperitoneal) in CD2F1 (CDF1) mice
Settings: endpoint: median survival time, higher = longer survival
In short: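 Mice carrying the transplanted tumor received test compound or vehicle. Survival was recorded in each group, and the value is the treated-group measurement divided by that of the vehicle-treated control group.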

[1] = dose: 50.0 mg/kg/injection, schedule: Q01DX009 (ip), vehicle: saline with Tween-80
[2] = dose: 100.0 mg/kg/injection, schedule: Q01DX009 (ip), vehicle: saline with Tween-80
[3] = dose: 200.0 mg/kg/injection, schedule: Q01DX009 (ip), vehicle: saline with Tween-80
[4] = dose: 50.0 mg/kg/injection, schedule: Q01DX005 (ip), vehicle: Klucel (hydroxypropylcellulose) (HPC)
[5] = dose: 100.0 mg/kg/injection, schedule: Q01DX005 (ip), vehicle: Klucel (hydroxypropylcellulose) (HPC)
[6] = dose: 200.0 mg/kg/injection, schedule: Q01DX005 (ip), vehicle: Klucel (hydroxypropylcellulose) (HPC)
[7] = dose: 50.0 mg/kg/injection, schedule: Q01DX005 (ip), vehicle: saline with Tween-80
[8] = dose: 200.0 mg/kg/injection, schedule: Q01DX001 (ip), vehicle: Klucel (hydroxypropylcellulose) (HPC)
[9] = dose: 50.0 mg/kg/injection, schedule: Q01DX009 (ip), vehicle: saline
[10] = dose: 100.0 mg/kg/injection, schedule: Q01DX009 (ip), vehicle: saline

With `CCCCCCC1(/C=C\c2ccccc2)OCCO1` the T/C [1] was 102 % of control, the T/C [2] was 110 % of control and the T/C [3] was 101 % of control.

`c1ccc2c3c([nH]c2c1)CN1CCCCC1C3` (configuration not stated) was tested, and the T/C (dose: 6.25 mg/kg/injection, schedule: Q01DX005 (ip), vehicle: Klucel (hydroxypropylcellulose) (HPC)) was 92 % of control, the T/C (dose: 12.5 mg/kg/injection, schedule: Q01DX005 (ip), vehicle: Klucel (hydroxypropylcellulose) (HPC)) was 92 % of control and the T/C (dose: 25.0 mg/kg/injection, schedule: Q01DX005 (ip), vehicle: Klucel (hydroxypropylcellulose) (HPC)) was 93 % of control. The T/C [4] was 99 % of control, the T/C [5] was 96 % of control and the T/C [6] was 112 % of control.

For `Cn1ncc(=O)c(Cl)c1Cl`, the T/C [7] was 95 % of control, the T/C (dose: 100.0 mg/kg/injection, schedule: Q01DX005 (ip), vehicle: saline with Tween-80) was 101 % of control and the T/C (dose: 200.0 mg/kg/injection, schedule: Q01DX005 (ip), vehicle: saline with Tween-80) was 102 % of control.

`C/C(=N/N/C=N/S(C)(=O)=O)c1ccccc1` was tested, and the T/C [4] was 103 % of control, the T/C [5] was 100 % of control and the T/C [6] was 99 % of control.

For `O=[N+]([O-])c1ccc(-c2csc(Nc3ccccn3)n2)o1`, the T/C (dose: 12.5 mg/kg/injection, schedule: Q01DX005 (ip), vehicle: saline with Tween-80) was 95 % of control, the T/C (dose: 25.0 mg/kg/injection, schedule: Q01DX005 (ip), vehicle: saline with Tween-80) was 99 % of control and the T/C [7] was 88 % of control and 92 % of control.

In the case of `c1ccc2c(CCc3c4ccccc4nc4ccccc34)c3ccccc3nc2c1`, the T/C (dose: 100.0 mg/kg/injection, schedule: Q01DX001 (ip), vehicle: Klucel (hydroxypropylcellulose) (HPC)) was 102 % of control, the T/C [8] was 105 % of control and the T/C (dose: 400.0 mg/kg/injection, schedule: Q01DX001 (ip), vehicle: Klucel (hydroxypropylcellulose) (HPC)) was 105 % of control.

With `Cn1c2c(c3nc(N)nc(N)c3c1=O)CCc1ccccc1-2` the T/C (dose: 25.0 mg/kg/injection, schedule: Q01DX005 (ip), vehicle: distilled water + alcohol) was 102 % of control, the T/C (dose: 50.0 mg/kg/injection, schedule: Q01DX005 (ip), vehicle: distilled water + alcohol) was 96 % of control and the T/C (dose: 100.0 mg/kg/injection, schedule: Q01DX005 (ip), vehicle: distilled water + alcohol) was 94 % of control. For the same compound, the T/C (dose: 200.0 mg/kg/injection, schedule: Q01DX005 (ip), vehicle: distilled water + alcohol) was 103 % of control.

`CCC(=O)OCc1c(-c2ccccc2)nc2sccn12` was tested, and the T/C [8] was 103 % of control.

With `COP1(OC)(OC)OC(C)=C(C)O1` the T/C [9] was 86 % of control, the T/C [10] was 94 % of control and the T/C (dose: 200.0 mg/kg/injection, schedule: Q01DX009 (ip), vehicle: saline) was 86 % of control.

In the case of `Cc1c(COC(=O)NC(C)C)c(COC(=O)NC(C)C)c2c3ccccc3c3ccccc3n12`, the T/C (dose: 12.5 mg/kg/injection, schedule: Q01DX009 (ip), vehicle: distilled water + Tween-80) was 180 % of control, the T/C (dose: 25.0 mg/kg/injection, schedule: Q01DX009 (ip), vehicle: distilled water + Tween-80) was 173 % of control and the T/C (dose: 50.0 mg/kg/injection, schedule: Q01DX009 (ip), vehicle: distilled water + Tween-80) was 110 % of control. The T/C (dose: 100.0 mg/kg/injection, schedule: Q01DX009 (ip), vehicle: distilled water + Tween-80) was 88 % of control.

In the case of `CN1C(=O)C23CCCN2C(=O)C1(C)SC(=N)S3` (configuration not stated), the T/C (dose: 25.0 mg/kg/injection, schedule: Q04DX003 (ip), vehicle: suspension in saline) was 101 % of control, the T/C (dose: 50.0 mg/kg/injection, schedule: Q04DX003 (ip), vehicle: suspension in saline) was 95 % of control and the T/C (dose: 100.0 mg/kg/injection, schedule: Q04DX003 (ip), vehicle: suspension in saline) was 95 % of control.

For `c1ccc(-c2ccc(-c3ccccc3)cc2)cc1`, the T/C (dose: 12.5 mg/kg/injection, schedule: Q01DX009 (ip), vehicle: Klucel (hydroxypropylcellulose) (HPC)) was 109 % of control, the T/C (dose: 25.0 mg/kg/injection, schedule: Q01DX009 (ip), vehicle: Klucel (hydroxypropylcellulose) (HPC)) was 97 % of control and the T/C (dose: 50.0 mg/kg/injection, schedule: Q01DX009 (ip), vehicle: Klucel (hydroxypropylcellulose) (HPC)) was 98 % of control. For the same compound, the T/C (dose: 100.0 mg/kg/injection, schedule: Q01DX009 (ip), vehicle: Klucel (hydroxypropylcellulose) (HPC)) was 98 % of control.

`O=C(O)c1ccccc1-c1nc2ccccc2[nH]1` was tested, and the T/C (dose: 100.0 mg/kg/injection, schedule: Q01DX001 (ip), vehicle: saline with Tween-80) was 99 % of control.

With `O=C1Nc2ccccc2C1=O` the T/C [1] was 100 % of control, the T/C [2] was 101 % of control and the T/C [3] was 105 % of control.

`CC(O)CNC1c2ccccc2CC1O` (configuration not stated) was tested, and the T/C (dose: 25.0 mg/kg/injection, schedule: Q01DX009 (ip), vehicle: saline) was 108 % of control, the T/C [9] was 100 % of control and the T/C [10] was 100 % of control.
